Results: PMC10693528, “A high-throughput metabolomics in vitro platform for the characterization of hepatotoxicity” (Cell Biology and Toxicology, 2023)

System: HepG2 cells
Assay: LC-MS/MS targeted intracellular metabolomics
Format: cell-based, human
Conditions: Suppl Fig 10, C3 (C2 for Aroclor), 48 h
Description: Metabolite profiling of cells was performed directly in the same 96-well plate according to a standardized protocol described below. In order to prevent any interaction with the cell material, the automatic sampler was adjusted to pick up the sample from the supernatant at a specified depth avoiding the contact with the bottom of the plate.
After the initial quenching step (50 μL isopropanol 80%), additional 70 μL of isopropanol 80%, containing internal standards (methionine-D3, tryptophan-D5, arginine-13C6-15N4, Boc-Ala-Gly-Gly-Gly-OH, coenzyme Q1, coenzyme Q2, coenzyme Q4) were added to each well. The internal standards were used for quality control by visual inspection (signal intensity, peak shape, retention time); they were not used for normalization. Afterwards, plates were shaken for 5 min, 750 rpm at 20 °C, and placed for 30 s in the ultrasonic device. Then, the plates were centrifugated for 10 min, at 5485 g, 15 °C. Further, 2.5 μL of the extract were injected each for reversed-phase and hydrophilic interaction liquid chromatography followed by MS/MS detection (AB Sciex QTrap 6500+) using the positive and negative ionization mode. For reverse-phase high-performance liquid chromatography (RP-HPLC, Ascentis Express C18, 5 cm × 2.1 mm, 2.7 μm Supelco), gradient elution was performed with mobile phase A, water/methanol/0.1 M ammonium formate (1:1:0.02, w/w), and B, methyl-tert-butylether/2-propanol/methanol/0.1 M ammonium formate/formic acid (4:2:1:0.07:0.035, w/w) 5.9 min linear gradient: 0 min 100% A, 0.5 min 75% A, 5.9 min 10% A; followed by 0% A until 6.7 min; re-equilibration at 100% A until 7.7 min; flow rate 600 μL/min; column temperature 40 °C HILIC (ZIC-HILIC, 2.1 × 100 mm, 3.5 μm, Supelco) gradient elution was performed with mobile phase C, acetonitrile/water (99:1, v/v) with 0.2% (v) acetic acid, and D, 7 mM ammonium acetate with 0.2% (v) acetic acid (5.0 min linear gradient: 0 min 100% C, 5 min 10% C; followed by a linear gradient back to 100%C until 6.5 min; re-equilibration at 100% C until 7.5 min; flow rate 600 μL/min; column temperature 40 °C.). Two LC-MS systems with identical configuration were used for the analysis. Normalization to lyophilized reference samples (see below) was used to compensate for variation from between analytical batches. The efficiency of this normalization procedure was checked by principal component analysis (PCA), confirming that Pool samples from different analytical batches clustered together.
Reference samples derived from lyophilized untreated HepG2 cells (technical control samples) were measured in parallel throughout the entire analytical process. Data were normalized against the median of these lyophilized HepG2 cells reference samples, to give normalized ratios (performed for each sample per metabolite). This compensated for inter- and intra-instrumental variation. To correct for small differences in cell numbers within and between different treatment groups, data were also normalized to the within sample median, as described in detail by (Ramirez et al. [2018]). For intracellular metabolomic analysis, the median of each sample was calculated across all the 221 measured metabolites.
To generate metabolic profiles for the different treatments, heteroscedastic t test (Welch test) was applied to log-transformed normalized metabolite data to compare treated groups with their respective controls.
Principal component analysis (PCA) and hierarchical clustering (HCA) analyses were performed using R software environment (https://www.r-project.org/). PCA was conducted using the ropls package (Thévenot et al. [2015]) with log10-transformed input data and standard scaling. HCA was performed using the pvclust package (Suzuki et al. [2019]), (https://CRAN.R-project.org/package=pvclust). Input: log10(Ratio), clustering method: Ward D2, distance method: Manhattan, bootstrapping: 10000 times.

SMILES: CCC(CC)Nc1c([N+](=O)[O-])cc(C)c(C)c1[N+](=O)[O-] [Pendimethalin]
- Carnitine level vs controls: 0.76
- Ceramide (d16:1.C24:0) level vs controls: 1.35
- Ceramide (d17:1.C24:0) level vs controls: 1.40
- Ceramide (d18:1.C20:0) level vs controls: 0.81
- Ceramide (d18:1.C22:1) level vs controls: 0.43
- Ceramide (d18:1.C24:1) level vs controls: 0.54
- Ceramide (d18:2.C16:0) level vs controls: 2.06
- Ceramide (d18:2.C23:0) level vs controls: 1.14
- Ceramide (d18:2.C24:0) level vs controls: 1.87
- Ceramide (d18:2.C24:1) level vs controls: 1.17
- Choline plasmalogen (C36:4) level vs controls: 0.63
- Choline plasmalogen (C36:5) level vs controls: 0.68
- Cysteinylglycine level vs controls: 1.14
- Flavin adenine dinucleotide (FAD) level vs controls: 1.14
- Glutathione (GSH) level vs controls: 1.12
- Hexanoylcarnitine level vs controls: 0.69
- Isopentenyl pyrophosphate (IPP) level vs controls: 2.79
- Lysophosphatidylcholine (C14:0) level vs controls: 2.28
- Lysophosphatidylcholine (C16:0) level vs controls: 2.37
- Lysophosphatidylcholine (C20:0) level vs controls: 2.37
- Lysophosphatidylcholine (C20:1) level vs controls: 1.47
- Lysophosphatidylcholine (C20:4) level vs controls: 2.32
- Lysophosphatidylcholine (C22:0) level vs controls: 3.44
- Lysophosphatidylcholine (C24:0) level vs controls: 4.49
- Lysophosphatidylcholine (C24:1) level vs controls: 3.59
- Lysophosphatidylethanolamine (C16:0) level vs controls: 1.81
- Lysophosphatidylethanolamine (C18:0) level vs controls: 2.07
- N-Acetylglucosamine level vs controls: 0.93
- N-Acetylserine level vs controls: 1.47
- O-Acetylcarnitine level vs controls: 1.02
- Pantothenic acid level vs controls: 0.78
- Phosphatidylcholine (C32:0) level vs controls: 1.93
- Phosphatidylcholine (C34:0) level vs controls: 1.83
- Phosphatidylcholine (C34:2) level vs controls: 0.64
- Phosphatidylcholine (C34:3) level vs controls: 0.79
- Phosphatidylcholine (C36:0) level vs controls: 2.49
- Phosphatidylcholine (C36:1) level vs controls: 0.93
- Phosphatidylcholine (C36:2) level vs controls: 0.52
- Phosphatidylcholine (C36:3) level vs controls: 0.73
- Phosphatidylcholine (C36:4) level vs controls: 1.10
- Phosphatidylcholine (C38:6) level vs controls: 1.15
- Phosphatidylethanolamine (C32:0) level vs controls: 3.04
- Phosphatidylethanolamine (C34:0) level vs controls: 2.78
- Phosphatidylethanolamine (C34:1) level vs controls: 1.48
- Phosphatidylethanolamine (C34:2) level vs controls: 0.68
- Phosphatidylethanolamine (C36:0) level vs controls: 3.98
- Phosphatidylethanolamine (C36:1) level vs controls: 1.46
- Phosphatidylethanolamine (C36:3) level vs controls: 0.82
- Phosphatidylethanolamine (C38:5) level vs controls: 0.79
- Phosphatidylethanolamine (C40:7) level vs controls: 0.57
- Proline level vs controls: 0.89
- Propionylcarnitine level vs controls: 0.65
- Sphingomyelin (d32:1) level vs controls: 0.92
- Sphingomyelin (d35:1) level vs controls: 1.07
- Sphingomyelin (d38:2) level vs controls: 0.76
- Sphingomyelin (d40:2) level vs controls: 0.93
- Sphingomyelin (d41:2) level vs controls: 0.79
- Sphingomyelin (d42:2) level vs controls: 0.73
- Triacylglycerol (C30:0.C18:1) level vs controls: 0.81
- Triacylglycerol (C32:0.C16:1) level vs controls: 0.66
- Triacylglycerol (C32:1.C16:1) level vs controls: 0.58
- Triacylglycerol (C34:0.C18:1) level vs controls: 0.96
- Triacylglycerol (C34:1.C16:0) level vs controls: 0.79
- Triacylglycerol (C34:1.C18:1) level vs controls: 0.71
- Triacylglycerol (C34:2.C18:0) level vs controls: 0.87
- Triacylglycerol (C34:2.C18:1) level vs controls: 0.44
- Triacylglycerol (C36:1.C18:0) level vs controls: 0.86
- Triacylglycerol (C36:1.C18:1) level vs controls: 0.65
- Triacylglycerol (C36:1.C18:2) level vs controls: 0.83
- Triacylglycerol (C36:2.C18:1) level vs controls: 0.49
- Triacylglycerol (C36:3.C18:1) level vs controls: 0.78
- Tyrosine level vs controls: 1.14
- myo-Inositol-2-phosphate level vs controls: 0.76
- Sphingomyelin (d34:2) level vs controls (first of two lines with this name): 1.11
- Sphingomyelin (d34:2) level vs controls (second of two lines with this name): 1.27
